Laboratory results taken from patent US12539292B2, “BRM targeting compounds and associated methods of use” (Arvinas Operations, Inc., priority 2018, dated 2026).

Biological target: T1, BRM (Homo sapiens, UniProt P51531)
T1 construct: In-Cell Western Screen of BRM Degradation in SW1573 Cells; endogenous in cells; host or cells: SW1573
Experiment: In-cell Western screen of BRM degradation in SW1573 cells (Dmax and DC50)
Type: cell-based
Settings: BRM degradation, SW1573 cells; for DC50: read-out: DC50; for Dmax: when tested at the top concentration of between 0.3 and 10 μM, read-out: Dmax (%) (% degraded)
In short: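 SW1573, overnight cpd exposure (18-20 h), 0.1% DMSO final. PFA fix, 0.5% Triton permeabilization, block; IR secondaries at 800/680 nm. Odyssey read → Dmax, DC50.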

T1 sequence (P51531 whole entry): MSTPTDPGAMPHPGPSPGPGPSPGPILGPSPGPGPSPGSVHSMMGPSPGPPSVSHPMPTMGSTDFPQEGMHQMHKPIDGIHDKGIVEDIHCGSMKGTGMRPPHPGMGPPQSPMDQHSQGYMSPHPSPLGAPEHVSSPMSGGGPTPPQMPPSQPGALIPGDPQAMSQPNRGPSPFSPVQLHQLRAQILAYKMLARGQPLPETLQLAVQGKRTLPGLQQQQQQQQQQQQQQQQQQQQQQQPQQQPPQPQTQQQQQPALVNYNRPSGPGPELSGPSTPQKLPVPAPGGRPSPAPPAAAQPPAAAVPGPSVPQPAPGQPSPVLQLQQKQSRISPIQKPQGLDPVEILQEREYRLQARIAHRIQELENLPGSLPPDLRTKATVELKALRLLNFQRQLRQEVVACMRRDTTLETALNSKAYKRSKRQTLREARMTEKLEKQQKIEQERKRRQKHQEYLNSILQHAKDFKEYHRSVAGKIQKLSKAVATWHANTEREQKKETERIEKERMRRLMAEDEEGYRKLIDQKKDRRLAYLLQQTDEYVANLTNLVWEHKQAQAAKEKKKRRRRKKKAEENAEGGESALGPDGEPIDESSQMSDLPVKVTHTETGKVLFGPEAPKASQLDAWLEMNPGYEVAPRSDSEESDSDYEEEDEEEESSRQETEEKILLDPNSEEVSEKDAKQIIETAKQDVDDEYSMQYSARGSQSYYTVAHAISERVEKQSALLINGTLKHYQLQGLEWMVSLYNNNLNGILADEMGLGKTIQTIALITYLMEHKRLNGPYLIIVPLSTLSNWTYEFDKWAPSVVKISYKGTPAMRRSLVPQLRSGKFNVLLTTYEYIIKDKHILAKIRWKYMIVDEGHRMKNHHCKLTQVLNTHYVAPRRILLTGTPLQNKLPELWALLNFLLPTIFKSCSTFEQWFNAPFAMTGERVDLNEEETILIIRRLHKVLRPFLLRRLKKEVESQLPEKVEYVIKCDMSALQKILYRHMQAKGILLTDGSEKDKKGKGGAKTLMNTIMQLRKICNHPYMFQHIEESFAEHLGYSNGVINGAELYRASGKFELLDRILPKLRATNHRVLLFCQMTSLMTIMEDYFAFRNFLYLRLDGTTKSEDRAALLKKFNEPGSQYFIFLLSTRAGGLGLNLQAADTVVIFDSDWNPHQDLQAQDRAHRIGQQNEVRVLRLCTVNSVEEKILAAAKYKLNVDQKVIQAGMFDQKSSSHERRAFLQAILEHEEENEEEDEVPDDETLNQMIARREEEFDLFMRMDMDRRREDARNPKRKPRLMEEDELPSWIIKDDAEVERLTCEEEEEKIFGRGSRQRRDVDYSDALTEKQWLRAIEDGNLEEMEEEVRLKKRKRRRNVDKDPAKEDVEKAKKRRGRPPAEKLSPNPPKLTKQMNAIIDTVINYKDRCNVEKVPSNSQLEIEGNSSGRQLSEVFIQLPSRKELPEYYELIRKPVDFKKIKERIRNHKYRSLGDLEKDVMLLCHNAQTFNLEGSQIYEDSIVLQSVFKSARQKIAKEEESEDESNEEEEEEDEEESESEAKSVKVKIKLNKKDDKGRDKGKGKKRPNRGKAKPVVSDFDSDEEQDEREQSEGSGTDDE

**Q.** For `CC(C)[C@@H](C(=O)N1C[C@H](O)C[C@H]1C(=O)N[C@@H](C)c1ccc(-c2nccn2C)cc1)c1cc(OCCN2CCN(CCOc3cc(N4C5CCC4CN(c4cc(-c6ccccc6O)nnc4N)C5)ccn3)CC2)no1` [compound 115, (2S,4R)-1-((2R)-2-(3-(2-(4-(2-((4-(3-(3-amino-6-(2-hydroxyphenyl)pyridazin-4-yl)-3,8-diazabicyclo[3.2.1]octan-8-yl)pyridin-2-yl)oxy)ethyl)piperazin-1-yl)ethoxy)isoxazol-5-yl)-3-methylbutanoyl)-4-hydroxy-N-((S)-1-(4-(1-methyl-1H-imidazol-2-yl)phenyl)ethyl)pyrrolidine-2-carboxamide], which DC50 is on record?
**A.** Its DC50 is greater than 30 nM.

**Q.** And the Dmax?
**A.** Its Dmax is 50 to 75%.

**Q.** Which results are given for `Cc1ncsc1-c1ccc([C@H](C)NC(=O)[C@@H]2C[C@@H](O)CN2C(=O)[C@@H](c2cc(OCCN3CCN(CCOc4cc(N5C6CCC5CN(c5cc(-c7ccccc7O)nnc5N)C6)ccn4)CC3)no2)C(C)C)cn1` [compound 116, (2S,4R)-1-((2R)-2-(3-(2-(4-(2-((4-(3-(3-amino-6-(2-hydroxyphenyl)pyridazin-4-yl)-3,8-diazabicyclo[3.2.1]octan-8-yl)pyridin-2-yl)oxy)ethyl)piperazin-1-yl)ethoxy)isoxazol-5-yl)-3-methylbutanoyl)-4-hydroxy-N-((S)-1-(6-(4-methylthiazol-5-yl)pyridin-3-yl)ethyl)pyrrolidine-2-carboxamide]?
**A.** DC50: < 2.5 nM; Dmax: > 75%

**Q.** `Cc1ncoc1-c1ccc([C@H](C)NC(=O)[C@@H]2C[C@@H](O)CN2C(=O)[C@@H](c2cc(OCCN3CCN(CCOc4cc(N5C6CCC5CN(c5cc(-c7ccccc7O)nnc5N)C6)ccn4)CC3)no2)C(C)C)cn1` [compound 117, (2S,4R)-1-((2R)-2-(3-(2-(4-(2-((4-(3-(3-amino-6-(2-hydroxyphenyl)pyridazin-4-yl)-3,8-diazabicyclo[3.2.1]octan-8-yl)pyridin-2-yl)oxy)ethyl)piperazin-1-yl)ethoxy)isoxazol-5-yl)-3-methylbutanoyl)-4-hydroxy-N-((S)-1-(6-(4-methyloxazol-5-yl)pyridin-3-yl)ethyl)pyrrolidine-2-carboxamide] was tested. Which DC50 did it give?
**A.** Its DC50 is 2.5 to 10 nM.

**Q.** What about the Dmax of the same compound?
**A.** The Dmax was greater than 75%.

**Q.** What does the source list for `Cc1ncsc1-c1ccc(CNC(=O)[C@@H]2C[C@@H](O)CN2C(=O)[C@@H](c2cc(OCCN3CCN(CCOCCn4cc(-c5cc(-c6ccccc6O)nnc5N)cn4)CC3)no2)C(C)C)cc1` [compound 124, (2S,4R)-1-((R)-2-(3-(2-(4-(2-(2-(4-(3-amino-6-(2-hydroxyphenyl)pyridazin-4-yl)-1H-pyrazol-1-yl)ethoxy)ethyl)piperazin-1-yl)ethoxy)isoxazol-5-yl)-3-methylbutanoyl)-4-hydroxy-N-(4-(4-methylthiazol-5-yl)benzyl)pyrrolidine-2-carboxamide]?
**A.** DC50: > 30 nM; Dmax: > 75%

**Q.** Which results are given for `Cc1ncsc1-c1ccc(C2(NC(=O)[C@@H]3C[C@@H](O)CN3C(=O)[C@@H](c3cc(OCCN4CCN(CCOc5cc(N6C7CCC6CN(c6cc(-c8ccccc8O)nnc6N)C7)ccn5)CC4)no3)C(C)C)CN(C)C2)cc1` [compound 126, (2S,4R)-1-((2R)-2-(3-(2-(4-(2-((4-(3-(3-amino-6-(2-hydroxyphenyl)pyridazin-4-yl)-3,8-diazabicyclo[3.2.1]octan-8-yl)pyridin-2-yl)oxy)ethyl)piperazin-1-yl)ethoxy)isoxazol-5-yl)-3-methylbutanoyl)-4-hydroxy-N-(1-methyl-3-(4-(4-methylthiazol-5-yl)phenyl)azetidin-3-yl)pyrrolidine-2-carboxamide]?
**A.** DC50: 2.5 to 10 nM; Dmax: > 75%

**Q.** `CC(=O)N1CC(NC(=O)[C@@H]2C[C@@H](O)CN2C(=O)[C@@H](c2cc(OCCN3CCN(CCOc4cc(N5C6CCC5CN(c5cc(-c7ccccc7O)nnc5N)C6)ccn4)CC3)no2)C(C)C)(c2ccc(-c3scnc3C)cc2)C1` [compound 127, (2S,4R)-N-(1-acetyl-3-(4-(4-methylthiazol-5-yl)phenyl)azetidin-3-yl)-1-((2R)-2-(3-(2-(4-(2-((4-(3-(3-amino-6-(2-hydroxyphenyl)pyridazin-4-yl)-3,8-diazabicyclo[3.2.1]octan-8-yl)pyridin-2-yl)oxy)ethyl)piperazin-1-yl)ethoxy)isoxazol-5-yl)-3-methylbutanoyl)-4-hydroxypyrrolidine-2-carboxamide] was tested. Which DC50 did it give?
**A.** The DC50 was 10 to 30 nM.

**Q.** What about the Dmax of the same compound?
**A.** The Dmax was greater than 75%.

**Q.** Which results are given for `CCOC[C@H](NC(=O)[C@@H]1C[C@@H](O)CN1C(=O)[C@@H](c1cc(OCCN2CCN(CCOc3cc(N4C5CCC4CN(c4cc(-c6ccccc6O)nnc4N)C5)ccn3)CC2)no1)C(C)C)c1ccc(-c2scnc2C)cc1` [compound 128, (2S,4R)-1-((2R)-2-(3-(2-(4-(2-((4-(3-(3-amino-6-(2-hydroxyphenyl)pyridazin-4-yl)-3,8-diazabicyclo[3.2.1]octan-8-yl)pyridin-2-yl)oxy)ethyl)piperazin-1-yl)ethoxy)isoxazol-5-yl)-3-methylbutanoyl)-N-((R)-2-ethoxy-1-(4-(4-methylthiazol-5-yl)phenyl)ethyl)-4-hydroxypyrrolidine-2-carboxamide]?
**A.** DC50: < 2.5 nM; Dmax: > 75%

**Q.** Which DC50 does the source give for `Cc1ncsc1-c1ccc([C@H](COCC(C)C)NC(=O)[C@@H]2C[C@@H](O)CN2C(=O)[C@@H](c2cc(OCCN3CCN(CCOc4cc(N5C6CCC5CN(c5cc(-c7ccccc7O)nnc5N)C6)ccn4)CC3)no2)C(C)C)cc1` [compound 129, (2S,4R)-1-((2R)-2-(3-(2-(4-(2-((4-(3-(3-amino-6-(2-hydroxyphenyl)pyridazin-4-yl)-3,8-diazabicyclo[3.2.1]octan-8-yl)pyridin-2-yl)oxy)ethyl)piperazin-1-yl)ethoxy)isoxazol-5-yl)-3-methylbutanoyl)-4-hydroxy-N-((R)-2-isobutoxy-1-(4-(4-methylthiazol-5-yl)phenyl)ethyl)pyrrolidine-2-carboxamide] here?
**A.** The DC50 was greater than 30 nM.

**Q.** With `Cc1ncsc1-c1ccc([C@H](COCC2CCOCC2)NC(=O)[C@@H]2C[C@@H](O)CN2C(=O)[C@@H](c2cc(OCCN3CCN(CCOc4cc(N5C6CCC5CN(c5cc(-c7ccccc7O)nnc5N)C6)ccn4)CC3)no2)C(C)C)cc1` [compound 130, (2S,4R)-1-((2R)-2-(3-(2-(4-(2-((4-(3-(3-amino-6-(2-hydroxyphenyl)pyridazin-4-yl)-3,8-diazabicyclo[3.2.1]octan-8-yl)pyridin-2-yl)oxy)ethyl)piperazin-1-yl)ethoxy)isoxazol-5-yl)-3-methylbutanoyl)-4-hydroxy-N-((R)-1-(4-(4-methylthiazol-5-yl)phenyl)-2-((tetrahydro-2H-pyran-4-yl)methoxy)ethyl)pyrrolidine-2-carboxamide] as the compound, how does the DC50 read?
**A.** The DC50 was 2.5 to 10 nM.

**Q.** What about the Dmax of the same compound?
**A.** Its Dmax is greater than 75%.

**Q.** Which DC50 does the source give for `Cc1ncsc1-c1ccc([C@@H](NC(=O)[C@@H]2C[C@@H](O)CN2C(=O)[C@@H](c2cc(OCCN3CCN(CCOc4cc(N5C6CCC5CN(c5cc(-c7ccccc7O)nnc5N)C6)ccn4)CC3)no2)C(C)C)C(=O)N(C)C)cc1` [compound 131, (2S,4R)-1-((2R)-2-(3-(2-(4-(2-((4-(3-(3-amino-6-(2-hydroxyphenyl)pyridazin-4-yl)-3,8-diazabicyclo[3.2.1]octan-8-yl)pyridin-2-yl)oxy)ethyl)piperazin-1-yl)ethoxy)isoxazol-5-yl)-3-methylbutanoyl)-N-((R)-2-(dimethylamino)-1-(4-(4-methylthiazol-5-yl)phenyl)-2-oxoethyl)-4-hydroxypyrrolidine-2-carboxamide] here?
**A.** Its DC50 is less than 2.5 nM.

**Q.** And the Dmax?
**A.** Its Dmax is greater than 75%.

**Q.** What does the source list for `Cc1ncsc1-c1ccc([C@H](C)NC(=O)[C@@H]2C[C@@H](O)CN2C(=O)[C@@H](c2cc(OCCN3C4CC3CN(CCOc3cc(N5C6CCC5CN(c5cc(-c7ccccc7O)nnc5N)C6)ccn3)C4)no2)C(C)C)cc1` [compound 132, (2S,4R)-1-((2R)-2-(3-(2-(3-(2-((4-(3-(3-amino-6-(2-hydroxyphenyl)pyridazin-4-yl)-3,8-diazabicyclo[3.2.1]octan-8-yl)pyridin-2-yl)oxy)ethyl)-3,6-diazabicyclo[3.1.1]heptan-6-yl)ethoxy)isoxazol-5-yl)-3-methylbutanoyl)-4-hydroxy-N-((S)-1-(4-(4-methylthiazol-5-yl)phenyl)ethyl)pyrrolidine-2-carboxamide]?
**A.** DC50: 2.5 to 10 nM; Dmax: > 75%

**Q.** With `Cc1ncsc1-c1ccc([C@H](C)NC(=O)[C@@H]2C[C@@H](O)CN2C(=O)[C@@H](c2cc(OCCN3CC4CC(C3)N4CCOc3cc(N4C5CCC4CN(c4cc(-c6ccccc6O)nnc4N)C5)ccn3)no2)C(C)C)cc1` [compound 133, (2S,4R)-1-((2R)-2-(3-(2-(6-(2-((4-(3-(3-amino-6-(2-hydroxyphenyl)pyridazin-4-yl)-3,8-diazabicyclo[3.2.1]octan-8-yl)pyridin-2-yl)oxy)ethyl)-3,6-diazabicyclo[3.1.1]heptan-3-yl)ethoxy)isoxazol-5-yl)-3-methylbutanoyl)-4-hydroxy-N-((S)-1-(4-(4-methylthiazol-5-yl)phenyl)ethyl)pyrrolidine-2-carboxamide] as the compound, how does the DC50 read?
**A.** The DC50 was less than 2.5 nM.

**Q.** What about the Dmax of the same compound?
**A.** Its Dmax is greater than 75%.

**Q.** Which results are given for `Cc1ncsc1-c1ccc([C@H](C)NC(=O)[C@@H]2C[C@@H](O)CN2C(=O)[C@@H](c2cc(CCCN3CCN(CCOc4cc(N5C6CCC5CN(c5cc(-c7ccccc7O)nnc5N)C6)ccn4)CC3)no2)C(C)C)cc1` [compound 134, (2S,4R)-1-((2R)-2-(3-(3-(4-(2-((4-(3-(3-amino-6-(2-hydroxyphenyl)pyridazin-4-yl)-3,8-diazabicyclo[3.2.1]octan-8-yl)pyridin-2-yl)oxy)ethyl)piperazin-1-yl)propyl)isoxazol-5-yl)-3-methylbutanoyl)-4-hydroxy-N-((S)-1-(4-(4-methylthiazol-5-yl)phenyl)ethyl)pyrrolidine-2-carboxamide]?
**A.** DC50: < 2.5 nM; Dmax: > 75%
